Test results taken from patent publication US10091997B2, “Composition for inhibition of insect host sensing” (Vanderbilt University, priority 2010, dated 2018).
“Also recorded” adds a separate entry of the source.

Assays:
AgORco+AgOR10 = test: plate-based Fluo-4 Ca2+ imaging in stable HEK293 cell lines; parameters: species or system Anopheles gambiae; details: AgORco+AgOR10 HEK293 cells; not seen in control cells
Source text: (§1) For transient transfections, ORs were cloned into pCI (Promega) and transfected into Flp-In™ T-REx™293 cell lines (Invitrogen) with Fu GENE6 (Roche). For the creation of stable cell lines, a cell culture expression vector capable of expressing AgORco in conjunction with a conventional OR, pcDNA5/FRT/TO (Invitrogen) was modified to create two individual expression cassettes each under the control of a separate CMV/TetO2 promoter and a BGH poly-adenylation signal. Cells (as above) were transfected with the modified pcDNA5 plasmid along with POG44 (a Flp recombinase expression plasmid) to facilitate site-specific recombination. Stable cell lines were selected using Hygromycin B (Invitrogen). Cells were maintained in DMEM (Invitrogen) supplemented with 10% Tetracycline-free FBS (HyClone) and 15 μg/ml Blasticidin. For fluorometric Ca^2+ measurements, stable lines expressing ORs of interest were seeded at 20,000 cells/well in black wall, poly-lysine coated 384-well cell culture plates (Greiner) and treated with 0.3 μg/μl tetracycline (Sigma) overnight to induce OR expression. Cells were dye-loaded with 1.8 μM Fluo-4 AM (Molecular Probes), 2.5 mM Probenecid (Molecular Probes) in assay buffer (20 mM HEPES, 1×HBSS) for 45 minutes at 37° C. in 5% CO2 prior to each assay. […] Baseline readings were taken for 20 s before automated addition of compound previously diluted in DMSO and assay buffer. […]

DmOR83b = biological target: T1, DmOR83b (Drosophila melanogaster, UniProt Q9VNB5); test: whole-cell patch clamp, HEK cells transiently transfected with DmOR83b; format: cell-based; details: HEK cells expressing DmOR83b, −60 mV
T1 construct: expressed in transfected cells; host or cells: Flp-In T-REx 293 (HEK), transient, pCI vector, GFP co-transfected
T1 sequence (Q9VNB5 1-486): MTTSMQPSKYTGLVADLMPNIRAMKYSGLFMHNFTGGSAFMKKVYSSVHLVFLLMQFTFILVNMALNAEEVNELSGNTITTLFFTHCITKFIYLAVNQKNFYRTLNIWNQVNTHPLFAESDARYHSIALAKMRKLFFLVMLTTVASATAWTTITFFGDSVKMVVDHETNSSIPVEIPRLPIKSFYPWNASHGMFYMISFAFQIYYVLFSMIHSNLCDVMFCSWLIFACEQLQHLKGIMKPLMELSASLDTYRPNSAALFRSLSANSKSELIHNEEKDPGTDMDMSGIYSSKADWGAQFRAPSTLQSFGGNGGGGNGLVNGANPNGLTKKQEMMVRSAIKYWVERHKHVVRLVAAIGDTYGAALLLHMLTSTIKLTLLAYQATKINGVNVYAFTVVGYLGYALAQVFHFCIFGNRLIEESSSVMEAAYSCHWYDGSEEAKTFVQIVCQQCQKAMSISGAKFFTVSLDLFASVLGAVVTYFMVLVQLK
Source text: as §1, with “Blasticidin.” for “Blasticidin. For fluorometric Ca^2+ measurements, stable lines expressing ORs of interest were seeded at 20,000 cells/well in black wall, poly-lysine coated 384-well cell culture plates (Greiner) and treated with 0.3 μg/μl tetracycline (Sigma) overnight to induce OR expression. Cells were dye-loaded with 1.8 μM Fluo-4 AM (Molecular Probes), 2.5 mM Probenecid (Molecular Probes) in assay buffer (20 mM HEPES, 1×HBSS) for 45 minutes at 37° C. in 5% CO2 prior to each assay.”
Currents from OR-expressing HEK293 cells were amplified with an Axopatch 200b Amplifier (Axon Instruments) and digitized through a Digidata 1322A (Axon Instruments). Electrophysiological data was recorded and analyzed using pCLAMP 10 (Axon Instruments). […]

[1] = system: Un-transfected HEK293 cells; test: whole-cell patch clamp, control HEK293 cells (un-transfected or GFP alone); format: cell-based, human
Description: Currents from OR-expressing HEK293 cells were amplified with an Axopatch 200b Amplifier (Axon Instruments) and digitized through a Digidata 1322A (Axon Instruments). Electrophysiological data was recorded and analyzed using pCLAMP 10 (Axon Instruments). Electrodes were fabricated from quartz tubing (Sutter Instruments) and pulled to 4-6 MΩ for whole cell recording. Electrodes were filled with internal solution (120 mM KCl, 30 mM D-glucose, 10 mM HEPES, 2 mM MgCl2, 1.1 mM EGTA, and 0.1 CaCl2 (pH 7.35, 280 mOsm). External (bath) solution contained 130 mM NaCl, 34 mM D-glucose, 10 mM HEPES, 1.5 mM CaCl2, 1.3 mM KH2PO4, and 0.5 MgSO4 (pH 7.35, 300 mOsm). Compounds were diluted in external solution and locally perfused to the recording cell using Perfusion Pencil (Automate Scientific) and controlled by a ValveLink 8.2 controller (Automate Scientific). Whole cell recordings were sampled at 10 kHz and filtered at 5 kHz. Outside-out patches were obtained using 10-15MΩ electrodes pulled from standard glass capillaries (World Precision Instruments) and fire-polished with an MF-830 micro forge (Narishige). Single channel recordings were sampled at 20 kHz. Recordings were reduced to 1 kHz and low-pass filtered at 500 Hz for display and analysis using QuB (SUNY at Buffalo).

## CCc1ccc(NC(=O)CSc2nnc(-c3cccnc3)n2CC)cc1 [VUAA1]
AgORco+AgOR10
  Ca2+ imaging response: concentration-dependent responses
DmOR83b
  whole-cell currents: robust inward currents
[1]; HEK cells transfected with GFP alone
  whole-cell currents in GFP alone cells: no currents
[1]; control / un-transfected HEK293 cells
  whole-cell currents in control cells: no responses were observed; also recorded: did not respond
